{
  "source": "paper PMC9786741",
  "about": "“Elucidating the Role of Santalol as a Potent Inhibitor of Tyrosinase: In Vitro and In Silico Approaches” (Molecules, 2022)",
  "molecular_target": "T1, tyrosinase (mushroom tyrosinase, polyphenoloxidase EC 1.14.18.1)",
  "T1 construct": "gene PPO3; native enzyme from mushroom caps; ammonium sulphate, DEAE-cellulose, Superdex 200; single 63 kDa band on SDS-PAGE; isoenzyme not determined",
  "assay": "isothermal titration calorimetry",
  "parameters": "species or system Agaricus bisporus",
  "conditions": "25 °C, pH 6.8, 25 mM phosphate; step 1 (strongest) of three-step sequential binding model",
  "excerpt": "isothermal titration calorimetry on tyrosinase (mushroom tyrosinase, polyphenoloxidase EC 1.14.18.1)",
  "data": [
    {"smiles": "C=C1C2CCC(C2)C1(C)CC/C=C(/C)CO", "note": "(stereo not shown) [santalol]", "values": [
      {"measurement": "Kd", "result": 1270, "unit": "nM"}
    ]}
  ]
}
